Assays:
[1] = tested on: calf thymus DNA (CT-DNA); experiment: DNA binding study, UV-Visible absorption titration; conditions: UV-Vis titration, 25 μM compound
Source text: The vast majority of anticancer agents used in pharmaceutical chemistry act on functional macromolecules such as DNA and proteins. Given this well-known fact, the relationship between newly developed anticancer drug candidates and macromolecules should be studied in detail. The interaction of molecules with DNA leads to significant changes in the helical structure of DNA, which can be observed by spectrophotometric techniques. […] Also, the red or blue shift in the absorption bands of the compounds can be an indication of the stability of the compound and the DNA structure. The DNA/BSA binding properties of the new chemicals synthesized by our group were determined using a UV-Vis spectrophotometer. The interactions of these compounds with DNA were as follows. […] Kb is the binding constant related to the complex to DNA and can be calculated algebraically from the slope of the line drawn between [DNA] / (ɛa-ɛf) and [DNA]. […]
To find the interaction of the compounds with calf thymus DNA and to calculate the binding constants (Kb) UV–Visible absorption spectroscopy technique was used. […] After dissolving the calf thymus DNA fibers in Tris–HCl buffer, the purity of this solution was checked from the absorbance ratio A260/A280. […] Absorption spectra were recorded by using 1-cm-path quartz cuvettes at room temperature. […]

[2] = biological target: BSA (Bos taurus, UniProt P02769); experiment: BSA binding study, UV-Visible absorption; conditions: UV-Vis, 25 μM compound, BSA 6.5–800 μM
Source text: The vast majority of anticancer agents used in pharmaceutical chemistry act on functional macromolecules such as DNA and proteins. Given this well-known fact, the relationship between newly developed anticancer drug candidates and macromolecules should be studied in detail. The interaction of molecules with DNA leads to significant changes in the helical structure of DNA, which can be observed by spectrophotometric techniques. […] Also, the red or blue shift in the absorption bands of the compounds can be an indication of the stability of the compound and the DNA structure. The DNA/BSA binding properties of the new chemicals synthesized by our group were determined using a UV-Vis spectrophotometer. The interactions of these compounds with DNA were as follows. In the spectra obtained by UV-Vis studies of the compounds, a single maximum absorption peak was observed and this peak had no clear bathochromic or hypsochromic effect. […]. […] The physical interactions of our newly synthesized compounds with BSA caused the formation of the spectral bands described below. […]. […]. Kb is the binding constant related to the complex to DNA and can be calculated algebraically from the slope of the line drawn between [DNA] / (ɛa-ɛf) and [DNA]. […].
To find the interaction of the compounds with calf thymus DNA and to calculate the binding constants (Kb) UV–Visible absorption spectroscopy technique was used. A 2.5-mg calf thymus DNA was dissolved in 10.0 mL Tris–HCl buffer (20 mM Tris–HCl, 20 mM NaCl, pH 7.0) and stabile during one week in the refrigerator. […]. After dissolving the calf thymus DNA fibers in Tris–HCl buffer, the purity of this solution was checked from the absorbance ratio A260/A280. […]. These compounds were diluted with Tris–HCl buffer to obtain 25 μM concentrations. Test compounds in the solutions were incubated at room temperature for nearly 30 min before the process. The UV-visible spectral studies were performed in mixed solvent system (1/9 DMSO/Tris–HCl buffer) using eight points that the fine structure is observed for these compounds in this system by UV-visible absorption. […]. Absorption spectra were recorded by using 1-cm-path quartz cuvettes at room temperature. To evaluate the interaction of the compounds with BSA, UV–Visible absorption spectroscopy technique was also used. A 2.5 mg BSA was dissolved in 10.0 mL of Tris–HCl buffer (5 mM Tris–HCl, 10 mM NaCl at pH 7.4) and stored in the refrigerator. […]

Chain of BSA (P02769 25-607): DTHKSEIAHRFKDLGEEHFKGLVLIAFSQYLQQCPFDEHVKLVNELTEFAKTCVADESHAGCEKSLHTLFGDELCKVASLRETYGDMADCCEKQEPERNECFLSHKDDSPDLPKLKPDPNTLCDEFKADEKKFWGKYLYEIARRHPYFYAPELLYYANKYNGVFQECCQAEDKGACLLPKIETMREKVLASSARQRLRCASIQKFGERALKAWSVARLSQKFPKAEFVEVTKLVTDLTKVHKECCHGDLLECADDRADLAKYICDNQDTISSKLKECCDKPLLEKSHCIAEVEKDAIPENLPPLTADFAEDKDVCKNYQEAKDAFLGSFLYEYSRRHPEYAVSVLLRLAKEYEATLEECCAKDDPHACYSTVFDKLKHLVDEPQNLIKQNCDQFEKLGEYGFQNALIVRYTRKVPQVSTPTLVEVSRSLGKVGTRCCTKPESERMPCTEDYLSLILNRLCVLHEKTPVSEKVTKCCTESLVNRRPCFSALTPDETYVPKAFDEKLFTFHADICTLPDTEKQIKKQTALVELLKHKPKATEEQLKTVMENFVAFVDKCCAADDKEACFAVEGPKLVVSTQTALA

Structure (SMILES) | binding constant (Kb) [1] | change of absorption on adding increasing amounts of BSA [2]
Cc1ccccc1-c1cc(-c2ccccn2)nc(N[C@@H]2O[C@H](CO)[C@@H](O)[C@H](O)[C@H]2O)n1 [Compound 1, N-[4-(2-methylphenyl)-6-pyridin-2-ylpyrimidin-2-yl]-β-D-glucopyranosylamine] | greater interest in DNA than the anticancer drugs cisplatin and 5FU | 
Cc1cccc(-c2cc(-c3ccccn3)nc(N[C@@H]3O[C@H](CO)[C@@H](O)[C@H](O)[C@H]3O)n2)c1 [Compound 4, N-[4-(3-methylphenyl)-6-pyridin-2-ylpyrimidin-2-yl]-β-D-glucopyranosylamine] |  | hyperchromic activity
Cc1cccc(-c2cc(-c3ccncc3)nc(N[C@@H]3O[C@H](CO)[C@@H](O)[C@H](O)[C@H]3O)n2)c1 [Compound 6, N-[4-(3-methylphenyl)-6-pyridin-4-ylpyrimidin-2-yl]-β-D-glucopyranosylamine] |  | hyperchromic activity
Cc1ccc(-c2cc(-c3ccncc3)nc(N[C@@H]3O[C@H](CO)[C@@H](O)[C@H](O)[C@H]3O)n2)cc1 [Compound 9, N-[4-(4-methylphenyl)-6-pyridin-4-ylpyrimidin-2-yl]-β-D-glucopyranosylamine] |  | hyperchromic activity
CC(=O)OC[C@H]1O[C@@H](Nc2nc(-c3ccc(C)cc3)cc(-c3ccccn3)n2)[C@H](OC(C)=O)[C@@H](OC(C)=O)[C@@H]1OC(C)=O [Compound 16, 2,3,4,6-tetra-O-acetyl-N-[4-(4-methylphenyl)-6-pyridin-2-ylpyrimidin-2-yl]-β-D-glucopyranosylamine] |  | hypochromically

From article PMC10387993, “New pyrimidine-N-β-D-glucosides: synthesis, biological evaluation, and molecular docking investigations” (Turkish Journal of Chemistry, 2023)
